# Like-named read-outs stand apart in the source and are kept apart here.
# Key:
# [1] = target: T1, LSD1 (Homo sapiens, UniProt O60341); settings: in vitro assays; cited from earlier work
# T1 construct: Reaction Biology Corporation (performed the assay)
# [2] = test system: human skin fibroblasts; set-up: method as in PMID 37432217; settings: in comparison to untreated controls, at certain doses; cited from earlier work
# [3] = test system: total MAO; assay: Total MAO activity assay in hESC-derived neurons stimulated with ATRA; type: cell-based, human; settings: 1 μM ATRA 24 h, then TCP 5 μM, OLC 50 μM or OLP 50 μM for 24 h
# Protocol: (§1) An in vitro model of MDD was designed for stem cell-derived neuronal cells through incubation of 1 μM all-trans retinoic acid (Sigma-Aldrich PHR1187, St. Louis, MO, USA). All cell treatments were conducted in duplicate and replicated using independently differentiating neuronal plates.
# (§2) Activity assays were commercially sourced from BioVision (Abcam, BioVision ab241031, Waltham, MA, USA) and were performed according to manufacturer’s instructions. The treatment groups were plated in duplicate on a black, flat 96-well microplate. The cells were homogenised in assay buffer using a microtube mixer at 4 °C and centrifuged at 10,000× g for 10 min. A Bradford assay was performed to determine the total protein concentration within each cell pellet (200 μg/well for BJ cells, 40 μg/well for hESC-derived neurons). Approximately 40 μL of supernatant was loaded into wells along with 10 μL of either […], or assay buffer for total MAO activity. A H2O2 standard was pipetted as supplied and 50 μL of reaction mix was pipetted into all wells. Using a CLARIOstar Plus Microplate Reader, (BMG Labtech, Ortenberg, Germany), fluorescence was measured kinetically at 25 °C for 60 min with Ex/Em = 535/587 nm.
# [4] = test system: T2, MAO-B; assay: MAO-B activity assay in hESC-derived neurons stimulated with ATRA; type: cell-based, human; settings: 1 μM ATRA 24 h, then TCP 5 μM, OLC 50 μM or OLP 50 μM for 24 h
# T2 construct: endogenous in cells; host or cells: BJ human foreskin fibroblasts stimulated with DEX or HC
# Protocol: as §1, §2
# [5] = test system: BJ cells; assay: Viability of BJ cells (CellTiter-Blue Cell Viability Assay); type: cell-based, human; settings: for IC50: Homo sapiens, BJ
# Protocol: The BJ cells were seeded at densities of 10,000 cells in black flat bottom 96-well plates (Nalge Nunc, Penfield, Rochester, NY, USA) and treated with a dose–response of OLC (0–500 μM) and OLP (0–500 μM) for 24 h, 48 h, 72 h, and 7 days at 37 °C, 5% (v/v) CO2. Cell viability was measured using the Cell-Titer Blue® Assay kit (Promega, Madison, WI, USA) according to the manufacturer’s instructions. Cell-Titer Blue reagent was added to each well and incubated for 4 h at 37 °C with 5% (v/v) CO2 before the fluorescence intensity was read using the CLARIOstar Microplate Reader (BMG Labtech, Ortenberg, Germany).
# A Nikon Eclipse Ts2 light microscope (Nikon Ti TS2-S-SM, Tokyo, Japan) was used to image untreated and treated BJ cells (OLP or OLC: 0–100 μM) at 4× objective magnification at 20, 44, and 120 h (Figures S1 and S2).
# [6] = test system: T3, MAO-A; assay: MAO-A activity assay in hESC-derived neurons stimulated with ATRA; type: cell-based, human; settings: 1 μM ATRA 24 h, then TCP 5 μM, OLC 50 μM or OLP 50 μM for 24 h
# T3 construct: endogenous in cells; host or cells: BJ human foreskin fibroblasts stimulated with DEX or HC
# Protocol: as §1, §2
# [7] = test system: T3, MAO-A; assay: MAO-A activity assay in corticosteroid-stimulated BJ cells; type: cell-based, human; settings: then 50 μM compound 24 h
# Protocol: (§3) The BJ cells were subsequently incubated with 10 μM HC or 100 μM DEX to stimulate MAO expression. […] The untreated BJ cells received normal growth medium. The cells were collected, homogenised, and analysed through Western blotting where the expression of MAO-A/B was determined through immunodetection of protein subtypes.
# as §2
# [8] = test system: MAO-A/B expression; assay: MAO-A/B protein expression in HC- or DEX-stimulated BJ cells (Western blotting); type: cell-based, human; settings: 10 μM HC 5 days or 100 μM DEX 7 days, then 50 μM compound; Western blot
# Protocol: as §3
# [9] = test system: total MAO; assay: Total MAO activity assay in corticosteroid-stimulated BJ cells; type: cell-based, human; settings: then 50 μM compound 24 h
# Protocol: as §3, §2
# [10] = target: T1, LSD1; assay: LSD1 fluorescence coupling enzyme assay (Reaction Biology Corporation); type: biochemical; settings: Reaction Biology Corp., 30 min pre-incubation, 10 μM histone H3(1-21)K4me2 peptide substrate; read-out: IC50, LSD1 demethylase activity
# Protocol: The inhibitory activity of HCl 489479, OLC, and OLP was measured using a fluorescence coupling enzyme assay (performed by Reaction Biology Corporation). […] All compounds were pre-incubated for 30 min with the enzyme before the addition of 10 μM histone H3(1-21)K4me2 peptide substrate to start the reaction. Fluorescence was measured using an EnVision Multimode Plate Reader at Ex/Em = 535/590.
# [11] = target: T4, purified MAO-A (Homo sapiens, UniProt P21397); assay: MAO-A direct screening assay (inhibitor screening kit); type: biochemical; settings: purified enzyme; read-out: IC50, inhibition of MAO-A
# T4 construct: purchased Sigma-Aldrich MAK295
# T4 sequence (P21397 1-527): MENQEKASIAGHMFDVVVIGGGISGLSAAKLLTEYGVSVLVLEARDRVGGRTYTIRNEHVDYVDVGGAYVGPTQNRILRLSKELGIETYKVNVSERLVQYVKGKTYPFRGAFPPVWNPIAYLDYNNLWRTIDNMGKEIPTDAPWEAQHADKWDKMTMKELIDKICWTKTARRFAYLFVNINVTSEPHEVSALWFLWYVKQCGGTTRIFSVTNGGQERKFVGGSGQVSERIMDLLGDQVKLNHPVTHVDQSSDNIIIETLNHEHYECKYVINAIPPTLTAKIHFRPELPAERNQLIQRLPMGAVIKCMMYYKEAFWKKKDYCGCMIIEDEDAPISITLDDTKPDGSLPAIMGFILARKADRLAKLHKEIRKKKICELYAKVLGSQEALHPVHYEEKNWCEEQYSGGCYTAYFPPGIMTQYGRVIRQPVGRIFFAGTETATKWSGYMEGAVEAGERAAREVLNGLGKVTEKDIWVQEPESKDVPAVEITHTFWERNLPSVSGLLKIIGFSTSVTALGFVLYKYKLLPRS
# Protocol: The assays were conducted for MAO-A and MAO-B according to the manufacturer’s instructions.
# [12] = test system: T2, MAO-B; assay: MAO-B activity assay in corticosteroid-stimulated BJ cells; type: cell-based, human; settings: then 50 μM compound 24 h
# Protocol: as §3, §2
IC50 [10] [µM],IC50 [11] [µM],Compound,IC50 [1] [µM],growth capacity of human skin fibroblasts [2],total MAO activity in hESC-derived neurons [3],MAO-B activity in hESC-derived neurons [4],relative viability of BJ cells at the highest concentration ([5]; 500 μM),"proliferation potential of BJ cells ([5]; 25, 50, 75 and 100 μM, similar to untreated cells)",IC50 ([5]; 24 h) [µM],IC50 ([5]; 48 h) [µM],toxicity to BJ cells at the concentrations used in further experiments ([5]; concentrations used in further experiments (50 μM)),viability of BJ cells at lower concentrations ([5]; up to 200 μM),MAO-A activity in hESC-derived neurons [6],MAO-A activity in BJ cells ([7]; 10 μM HC 5 days),MAO-A activity in BJ cells ([7]; 100 μM DEX 7 days),MAO enzyme expression within BJ cells [8],total MAO activity in BJ cells ([9]; 10 μM HC 5 days),total MAO activity in BJ cells ([9]; 100 μM DEX 7 days),MAO-B activity in BJ cells ([12]; 10 μM HC 5 days),MAO-B activity in BJ cells ([12]; 100 μM DEX 7 days)
,,CC=C(C=O)C(CC=O)CC(=O)OCCc1ccc(O)c(O)c1 (stereo in doubt) [oleacein],~2.5,,,,,,,,,,,,,,,,,
12,1.9,"C/C=C(/C=O)[C@@H](CC=O)CC(=O)OCCc1ccc(O)cc1 [OLC, oleocanthal]",,significantly increased,significantly reduced,significantly reduced,reduction,maintained their proliferation potential,123,111,non-toxic,largely maintained,significantly reduced,downregulate,downregulate,Potent inhibition,downregulate,downregulate,downregulate,downregulate
